Experimental data published in patent US12527782B2, “Use of hexokinase 2/mitochondria-detaching compounds for treating hexokinase-2 (HK2)-expressing cancers” (Vidac Pharma Ltd., priority 2016, dated 2026).
Entries after “also recorded” stand apart in the source; their conditions may differ.

Columns and labels:
[1] = tested on: Lung (NSCLC, adeno) LXFA 749; assay: CFA, LXFA 749; format: cell-based, human; conditions: PDX/CFA
Description: (§1) CFA was performed by Charles River Laboratories (Freiburg, Germany) in 96-well plate format according to a modified two-layer soft agar assay. The origin of the tumor xenografts has been described (Fiebig et al. 1989, incorporated herein by reference). The list of tumors used in this study is detailed in Table 1.

[2] = tested on: Kidney RXF 423; assay: CFA, RXF 423; format: cell-based, human; conditions: PDX/CFA
Description: as §1

[3] = tested on: Skin SCC VXF A-431; assay: CFA, VXF A-431; format: cell-based, human; conditions: Cell line/CFA
Description: as §1

[4] = tested on: Breast MAXF 574; assay: CFA, MAXF 574; format: cell-based, human; conditions: PDX/CFA
Description: as §1

[5] = tested on: Lung (NSCLC, large) LXFL 1072; assay: CFA, LXFL 1072; format: cell-based, human; conditions: PDX/CFA
Description: as §1

[6] = tested on: Pancreas PAXF 736; assay: CFA, PAXF 736; format: cell-based, human; conditions: PDX/CFA
Description: as §1

[7] = tested on: Lung (SCLC) LXFS 538; assay: CFA, LXFS 538; format: cell-based, human; conditions: PDX/CFA
Description: as §1

[8] = tested on: Cutanous T cell lymphoma HH; assay: XTT cell viability assay, HH; format: cell-based, human; conditions: Cell line/XTT
Description: For XTT assays, cells were plated in 96-well plates (5,000 cells per well) for 24 hours. Cells were then incubated with different concentrations of Formula C in triplicates for 72 hr in DMEM supplemented with 0.5% FCS and 5 mM Glucose. Cell viability was evaluated using 2,3-bis-(2-methoxy-4-nitro-5-sulfophenyl)-2H-tetrazolium-5-carboxanilide (XTT)-based colorimetric assay kit (Biological Industries Ltd., Kibbutz Beit-Haemek, Israel). The optical density was measured by an Infinite 200 ELISA reader at 450 nm and reference was measured at 630 nm (Tecan, Männedorf, Switzerland).

[9] = tested on: Head & Neck HNXF 536; assay: CFA, HNXF 536; format: cell-based, human; conditions: PDX/CFA
Description: as §1

[10] = tested on: Skin SCC SXFS 627; assay: CFA, SXFS 627; format: cell-based, human; conditions: PDX/CFA
Description: as §1

[11] = tested on: Lymphoma (Non-Hodgkin) LYXFNH RAJI; assay: CFA, LYXFNH RAJI; format: cell-based, human; conditions: Cell line/CFA
Description: as §1

[12] = tested on: Lung (NSCLC, large) LXFL 430; assay: CFA, LXFL 430; format: cell-based, human; conditions: PDX/CFA
Description: as §1

[13] = target: T1, HK2 (Homo sapiens, UniProt P52789); assay: HK catalytic activity coupled enzymatic assay, HK2; format: biochemical; conditions: as a function of ATP or glucose; absence or presence of 10 M Formula C
T1 construct: host or cells: E. coli
T1 sequence (P52789 whole entry): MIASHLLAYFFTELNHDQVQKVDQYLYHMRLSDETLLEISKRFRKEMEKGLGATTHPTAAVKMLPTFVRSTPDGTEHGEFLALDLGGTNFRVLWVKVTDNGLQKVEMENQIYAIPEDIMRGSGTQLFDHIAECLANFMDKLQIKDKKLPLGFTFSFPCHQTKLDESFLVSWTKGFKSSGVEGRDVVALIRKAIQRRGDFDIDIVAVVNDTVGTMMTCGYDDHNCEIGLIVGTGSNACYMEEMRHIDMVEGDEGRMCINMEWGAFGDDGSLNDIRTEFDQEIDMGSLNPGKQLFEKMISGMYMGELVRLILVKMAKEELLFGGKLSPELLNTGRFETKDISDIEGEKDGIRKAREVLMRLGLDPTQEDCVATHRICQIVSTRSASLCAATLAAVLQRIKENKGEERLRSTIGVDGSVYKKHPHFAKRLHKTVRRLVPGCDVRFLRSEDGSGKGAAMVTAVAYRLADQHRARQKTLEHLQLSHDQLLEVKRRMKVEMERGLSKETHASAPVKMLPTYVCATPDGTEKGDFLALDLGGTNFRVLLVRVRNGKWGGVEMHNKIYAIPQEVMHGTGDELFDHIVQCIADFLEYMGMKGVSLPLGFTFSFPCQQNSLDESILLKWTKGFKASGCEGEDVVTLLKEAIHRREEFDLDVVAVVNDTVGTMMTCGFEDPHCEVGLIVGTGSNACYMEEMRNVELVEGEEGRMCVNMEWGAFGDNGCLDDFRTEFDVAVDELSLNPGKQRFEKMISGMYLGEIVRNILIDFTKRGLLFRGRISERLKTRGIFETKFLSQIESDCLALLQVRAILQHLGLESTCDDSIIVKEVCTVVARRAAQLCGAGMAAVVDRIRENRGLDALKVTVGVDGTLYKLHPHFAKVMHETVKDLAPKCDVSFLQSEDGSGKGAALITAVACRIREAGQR
Description: A431 (human skin SCC), HT-297.T (human AK), and HaCaT transformed normal keratinocyte cell lines were from ATCC (Manassas, VA) and were maintained in DMEM supplemented with 10% FCS, 4 mM L-Gln, 1 mM sodium pyruvate, 100 U/mL penicillin, 1 μg/mL streptomycin. Human HK1 and HK2 plasmids were purchased from Addgene (Cambridge, MA) and were purified from E. Coli. VDAC1 was purified from sheep liver mitochondria as described (Arbel et al. 2012, incorporated herein by reference). Human skin tissue microarray (SK208 and SK 805) were purchased from US Biomax Inc. (Rockville, MD).
Hexokinase catalytic activity was determined by the coupled enzymatic assay in which hexokinase catalyzes the conversion of glucose to G6P, which is then oxidized by glucose-6-phosphate dehydrogenase (G6PDH) in the presence of NADP to form 6-Phospho-D-Gluconate and NADPH. NADPH production results in a colorimetric signal at 340 nm, which is proportional to the hexokinase catalytic activity. The readings were recorded in an ELISA plate reader Infinite 200 ELISA reader (Tecan, Männedorf, Switzerland).

[14] = Phase 2a in subjects with actinic keratosis, pharmacokinetics; format: in vivo, human; conditions: subjects with AK; topical application
Description: The Phase 2 clinical trial was a multiple-center randomized, double-blind, placebo-controlled, parallel-cohorts study to evaluate the efficacy, safety, tolerability, and pharmacokinetics of once-daily application of topical Formula C ointment (QD 200 mg) for 28 days in subjects with actinic keratosis. Subjects were followed for one or two months after they completed treatment (through day 56 or day 84). The primary and exploratory efficacy endpoints for the study were reduction in the number of lesions on days 56 and 84, respectively. Subjects were randomly assigned in a double-blind fashion to one of three parallel treatment cohorts (5%, or 10% Formula C, or placebo) at a ratio of 1:1:1. To qualify for the study, subjects aged 18 (inclusive) or older must have had 4-8 discrete Grade 1 or 2 AK lesions within a 25-centimeter squared area of the skin of their scalp or face. The study enrolled 93 subjects in the US and Israel.

[15] = tested on: Stomach GXF 214; assay: CFA, GXF 214; format: cell-based, human; conditions: PDX/CFA
Description: as §1

[16] = tested on: Colon CXF HCT 116; assay: CFA, CXF HCT 116; format: cell-based, human; conditions: PDX/CFA
Description: as §1

[17] = tested on: Breast MAXF MDA-MB-231; assay: CFA, MAXF MDA-MB-231; format: cell-based, human; conditions: Cell line/CFA
Description: as §1

Structure (SMILES): CC/C=C\CC1C(=O)CCC1CC(=O)Oc1cccc2cccnc12 (centres unmarked) [Formula C]
- IC50 [1]: 1700 nM
- IC50 [2]: 1700 nM
- IC50 [3]: 364 nM
- IC50 [4]: 5410 nM
- IC50 [5]: 1570 nM
- IC50 [6]: 1740 nM
- IC50 [7]: 163 nM
- IC50 [8]: 604 nM
- IC50 [9]: 1440 nM
- IC50 [10]: 1560 nM
- IC50 [11]: 1380 nM
- IC50 [12]: 237 nM
- HK2 catalytic activity [13]: does not affect; also recorded: did not affect the catalytic activity
- systemic exposure of VDA-1102 or its major metabolite [14]: No systemic exposure
- IC50 [15]: 1940 nM
- IC50 [16]: 4330 nM
- IC50 [17]: 1700 nM
